How the values were obtained:
Assay in all cases: relative viability (nuclei count vs DMSO), 5 days (fraction); higher = more cells survive
Kobe2602 + Dasatinib = compound: C1=CC(=CC=C1NC(=S)NNC2=C(C=C(C=C2[N+](=O)[O-])C(F)(F)F)[N+](=O)[O-])F [Kobe2602] + Cc1nc(Nc2ncc(C(=O)Nc3c(C)cccc3Cl)s2)cc(N2CCN(CCO)CC2)n1 [Dasatinib] (partner 0.075 µM)
Summary of the method: (§1)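 Dosing by pin tool came one day after lung cancer cell lines were seeded in 1536-well plates, using either one drug or a fixed anchor-drug dose plus five library-drug doses (not always all listed) in √10 steps. After 5 days, nuclei were counted on 4× images. Relative viability is treated-well nuclei count divided by vehicle-well nuclei count, and values are medians of duplicate plates.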

Cabozantinib + OSI-027 = compound: COc1cc2nccc(Oc3ccc(NC(=O)C4(C(=O)Nc5ccc(F)cc5)CC4)cc3)c2cc1OC [Cabozantinib] + COc1cccc2cc(-c3nc([C@H]4CC[C@H](C(=O)O)CC4)n4ncnc(N)c34)[nH]c12 [OSI-027] (partner 0.5 µM)
Summary of the method: as §1

[1] = compound: COc1cc2nccc(Oc3ccc(NC(=O)C4(C(=O)Nc5ccc(F)cc5)CC4)cc3)c2cc1OC [Cabozantinib] + Nc1nc2[nH]cc(CCc3ccc(C(=O)N[C@@H](CCC(=O)O)C(=O)O)cc3)c2c(=O)[nH]1 [Pemetrexed] (partner 0.2 µM)
Summary of the method: as §1

Kobe2602 + Alpelisib = compound: C1=CC(=CC=C1NC(=S)NNC2=C(C=C(C=C2[N+](=O)[O-])C(F)(F)F)[N+](=O)[O-])F [Kobe2602] + Cc1nc(NC(=O)N2CCC[C@H]2C(N)=O)sc1-c1ccnc(C(C)(C)C(F)(F)F)c1 [Alpelisib] (partner 2 µM)
Summary of the method: as §1

Cell Line	relative viability (Kobe2602 + Dasatinib; first compound 0.2 µM)	relative viability (Kobe2602 + Dasatinib; first compound 0.6325 µM)	relative viability (Kobe2602 + Dasatinib; first compound 2 µM)	relative viability (Kobe2602 + Dasatinib; first compound 6.325 µM)	relative viability (Kobe2602 + Dasatinib; first compound 20 µM)	relative viability (Cabozantinib + OSI-027; first compound 0.02 µM)	relative viability (Cabozantinib + OSI-027; first compound 0.06325 µM)	relative viability (Cabozantinib + OSI-027; first compound 0.2 µM)	relative viability (Cabozantinib + OSI-027; first compound 0.6325 µM)	relative viability (Cabozantinib + OSI-027; first compound 2 µM)	relative viability ([1]; first compound 0.02 µM)	relative viability ([1]; first compound 0.06325 µM)	relative viability ([1]; first compound 0.2 µM)	relative viability ([1]; first compound 0.6325 µM)	relative viability ([1]; first compound 2 µM)	relative viability (Kobe2602 + Alpelisib; first compound 0.2 µM)	relative viability (Kobe2602 + Alpelisib; first compound 0.6325 µM)	relative viability (Kobe2602 + Alpelisib; first compound 2 µM)	relative viability (Kobe2602 + Alpelisib; first compound 6.325 µM)	relative viability (Kobe2602 + Alpelisib; first compound 20 µM)
NCI-H1395	0.468	0.456	0.452	0.442	0.442	0.514	0.675	0.632	0.69	0.573	0.699	1.03	0.924	0.714	0.824	1.05	1.29	1.09	1.14	1.03
NCI-H1651	0.596	0.362	0.429	0.402	0.37	0.725	0.69	0.612	0.796	0.581	0.498	0.732	0.588	0.497	0.544	0.964	0.932	0.792	0.809	0.965
NCI-H1734	0.425	0.543	0.432	0.478	0.468	0.433	0.611	0.59	0.586	0.573	0.396	0.435	0.413	0.445	0.397	0.71	0.816	0.665	0.726	0.784
NCI-H520	0.205	0.233	0.197	0.222	0.202	0.215	0.289	0.247	0.286	0.218	0.625	0.747	0.667	0.63	0.552	0.912	1.12	0.848	0.84	0.859
